Test results: US20250382344A1, “Soluble GLP1/GIP/NPY2 Receptor Triple Agonists” (Boehringer Ingelheim International GmH, priority 2024, published 2025)

Experiments:
[1] = Solubility in 0.1 M phosphate buffer at pH 7; format: physicochemical; conditions: 0.1 M phosphate buffer at pH 7, 10 mg/mL final peptide concentration, shaking 2 hours at room temperature, peptides as TFA-salts, measured sample pH 6.5-7.0; for solubility: read-out: Solubility
Procedure: Peptides (as TFA-salts) were weighed out in a filter unit (Mini-UniPrep Syringeless Filter 0.45 μm, Whatman PVDF), and 0.1 M phosphate buffer at pH 7 was added to achieve 10 mg/mL final peptide concentration. The peptides were dissolved by shaking the filter units horizontally at 600 rpm for 2 hours at room temperature. Samples were then filtered to remove any insoluble particles. Controls were prepared by weighing out the corresponding peptide solid material and dissolving it in an appropriate vehicle (e.g. ACN:H2O) to a final concentration of 1 mg/mL. Both, the control and sample were analyzed by reversed phase chromatography. The area under the peak of the sample was compared to the control and the solubility was calculated based on that ratio. The pH was measured and recorded for each sample.

hGIPR = target: T1, hGIPR (Homo sapiens, UniProt P48546); assay: hGIPR CreLuc assay in 0.5% and 100% plasma (CHO CRE-luciferase reporter cells); format: cell-based; conditions: 0.5% human plasma, read-out: hGIPR 0.5% hP
T1 construct: expressed in transfected cells; host or cells: CHO CRE-luciferase reporter cells
T1 sequence (P48546 22-466): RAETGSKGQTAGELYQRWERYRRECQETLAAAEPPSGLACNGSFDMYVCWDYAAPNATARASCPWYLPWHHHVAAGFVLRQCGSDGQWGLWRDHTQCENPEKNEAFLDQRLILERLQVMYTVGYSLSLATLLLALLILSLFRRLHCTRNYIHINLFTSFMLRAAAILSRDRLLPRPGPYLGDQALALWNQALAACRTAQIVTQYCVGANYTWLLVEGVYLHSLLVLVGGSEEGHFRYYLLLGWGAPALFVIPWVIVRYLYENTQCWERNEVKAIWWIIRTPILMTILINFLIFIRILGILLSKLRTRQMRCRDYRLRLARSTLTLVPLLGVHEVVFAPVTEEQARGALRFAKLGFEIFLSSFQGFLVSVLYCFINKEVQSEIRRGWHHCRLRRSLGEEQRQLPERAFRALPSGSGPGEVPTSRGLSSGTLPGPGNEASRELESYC
Excerpt: CHO and HEK-293 recombinant cell lines express a luciferase reporter gene under control of the CAMP responsive element (CRE). As a second recombinant protein the GLP-1 and NPY2 receptors were expressed in the reporter gene HEK cells, and the GIP receptor was expressed in the reporter gene CHO cells, respectively. Stimulation of these recombinant cells with an agonist leads to an increase of intracellular CAMP levels. In the presence of CAMP, the transcription factor CRE binding protein (CREB) binds to the CRE and to the CREB binding protein (CBP), which leads to transcription of the luciferase reporter gene. Peptides upon serial-dilution in 100% DMSO were transferred into 384-well assay plates with 5 μl pre-dispensed assay buffer (1×HBSS, 20 mM HEPES, pH7.4 supplemented with 0.5% human plasma) using acoustic dispensing on a Labcyte ECHO. Cryo-preserved transgenic reporter gene cells were thawed in assay buffer. 20 μl (10.000 cells/well) were added to the plate with the peptides and incubated for 4 hours at 37° C. in a humidified incubator. Following incubation, assay plates are equilibrated to room temperature, followed by addition of 25 μl of Bright-Glo™ Luciferase reagent, incubation at room temperature for 10 minutes and analysis of luminescence (Envision Reader). […] EC50 values were calculated by non-linear regression using sigmoid concentration-response with variable slope.
The same assays were run in the presence of 100% plasma with no additional buffer constituents.

Molecule `CC[C@H](C)[C@H](NC(=O)[C@H](CCCCN)NC(=O)[C@H](CCC(=O)O)NC(=O)[C@H](CC(C)C)NC(=O)C(C)(C)NC(=O)[C@@H](NC(=O)[C@H](CO)NC(=O)[C@H](Cc1ccc(O)cc1)NC(=O)[C@H](CC(=O)O)NC(=O)[C@H](CO)NC(=O)[C@@H](NC(=O)[C@H](Cc1ccccc1)NC(=O)[C@@H](NC(=O)CNC(=O)[C@H](CCC(=O)O)NC(=O)C(C)(C)NC(=O)[C@@H](N)Cc1ccc(O)cc1)[C@@H](C)O)[C@@H](C)O)[C@@H](C)CC)C(=O)N[C@@H](C)C(=O)N[C@@H](CCC(N)=O)C(=O)NC(C)(C)C(=O)N[C@@H](C)C(=O)N[C@@H](Cc1ccccc1)C(=O)N[C@H](C(=O)N[C@@H](CCCNC(=N)N)C(=O)N[C@@H](Cc1c[nH]cn1)C(=O)N[C@@H](CC(C)C)C(=O)N[C@H](C(=O)N[C@@H](CC(N)=O)C(=O)N[C@@H](CCCCNC(=O)[C@@H](N)CCCCNC(=O)CC[C@H](NC(=O)CC[C@H](NC(=O)CC[C@H](NC(=O)CC[C@H](NC(=O)CC[C@H](NC(=O)CC[C@H](NC(=O)CCCCCCCCCCCCCCCCC(=O)O)C(=O)O)C(=O)O)C(=O)O)C(=O)O)C(=O)O)C(=O)O)C(=O)NC(C)(C)C(=O)N[C@H](C(=O)N[C@@H](CCCNC(=N)N)C(=O)N[C@@H](CCC(N)=O)C(=O)N[C@@H](CCCNC(=N)N)C(=O)N[C@@H](Cc1ccc(O)cc1)C(N)=O)[C@@H](C)O)[C@@H](C)CC)C(C)C` [Compound 24, Y-Aib-E-G-T-F-T-S-D-Y-S-I-Aib-L-E-K-I-A-Q-Aib-A-F-V-R-H-L-I-N-K(1,3)-Aib-T-R-Q-R-Y-NH2.C18DA-gGlu-gGlu-gGlu-gGlu-gGlu-gGlu-eLys(1,2)] has a solubility [1] of 8100 µg/mL.

Molecule `CC[C@H](C)[C@H](NC(=O)[C@H](CC(C)C)NC(=O)[C@H](Cc1c[nH]cn1)NC(=O)[C@H](CCCNC(=N)N)NC(=O)[C@@H](NC(=O)[C@H](Cc1ccccc1)NC(=O)[C@H](C)NC(=O)C(C)(C)NC(=O)[C@H](CCC(N)=O)NC(=O)[C@H](C)NC(=O)[C@H](CCC(=O)O)NC(=O)[C@H](CCCCN)NC(=O)[C@H](CCC(=O)O)NC(=O)[C@H](CC(C)C)NC(=O)C(C)(C)NC(=O)[C@@H](NC(=O)[C@H](CO)NC(=O)[C@H](Cc1ccc(O)cc1)NC(=O)[C@H](CC(=O)O)NC(=O)[C@H](CO)NC(=O)[C@@H](NC(=O)[C@H](Cc1ccccc1)NC(=O)[C@@H](NC(=O)CNC(=O)[C@H](CCC(=O)O)NC(=O)C(C)(C)NC(=O)[C@@H](N)Cc1ccc(O)cc1)[C@@H](C)O)[C@@H](C)O)[C@@H](C)CC)C(C)C)C(=O)N[C@@H](CC(N)=O)C(=O)N[C@@H](CCCCNC(=O)[C@@H](N)CCCCNC(=O)[C@H](CCC(=O)O)NC(=O)CC[C@H](NC(=O)CC[C@H](NC(=O)CC[C@H](NC(=O)CC[C@H](NC(=O)CC[C@H](NC(=O)CCCCCCCCCCCCCCCCCCC(=O)O)C(=O)O)C(=O)O)C(=O)O)C(=O)O)C(=O)O)C(=O)NC(C)(C)C(=O)N[C@H](C(=O)N[C@@H](CCCNC(=N)N)C(=O)N[C@@H](CCC(N)=O)C(=O)N[C@@H](CCCNC(=N)N)C(=O)N[C@@H](Cc1ccc(O)cc1)C(N)=O)[C@@H](C)O` [Compound 28, Y-Aib-E-G-T-F-T-S-D-Y-S-I-Aib-L-E-K-E-A-Q-Aib-A-F-V-R-H-L-I-N-K(1,3)-Aib-T-R-Q-R-Y-NH2.C20DA-gGlu-gGlu-gGlu-gGlu-gGlu-gGlu-eLys(1,2)] has a solubility [1] of 10000 µg/mL.

In the case of `CC[C@H](C)[C@H](NC(=O)[C@H](CC(C)C)NC(=O)[C@H](Cc1c[nH]cn1)NC(=O)[C@H](CCCNC(=N)N)NC(=O)[C@@H](NC(=O)[C@H](Cc1ccccc1)NC(=O)[C@H](C)NC(=O)C(C)(C)NC(=O)[C@H](CCC(N)=O)NC(=O)[C@H](CCC(=O)O)NC(=O)[C@H](CCC(N)=O)NC(=O)[C@H](CCCCN)NC(=O)[C@H](CCC(=O)O)NC(=O)[C@H](CC(C)C)NC(=O)C(C)(C)NC(=O)[C@@H](NC(=O)[C@H](CO)NC(=O)[C@H](Cc1ccc(O)cc1)NC(=O)[C@H](CC(=O)O)NC(=O)[C@H](CO)NC(=O)[C@@H](NC(=O)[C@H](Cc1ccccc1)NC(=O)[C@@H](NC(=O)CNC(=O)[C@H](CCC(=O)O)NC(=O)C(C)(C)NC(=O)[C@@H](N)Cc1ccc(O)cc1)[C@@H](C)O)[C@@H](C)O)[C@@H](C)CC)C(C)C)C(=O)N[C@@H](CC(N)=O)C(=O)N[C@@H](CCCCNC(=O)[C@@H](N)CCCCNC(=O)CC[C@H](NC(=O)CC[C@H](NC(=O)CC[C@H](NC(=O)CC[C@H](NC(=O)CC[C@H](NC(=O)CC[C@H](NC(=O)CCCCCCCCCCCCCCCCC(=O)O)C(=O)O)C(=O)O)C(=O)O)C(=O)O)C(=O)O)C(=O)O)C(=O)NC(C)(C)C(=O)N[C@H](C(=O)N[C@@H](CCCNC(=N)N)C(=O)N[C@@H](CCC(N)=O)C(=O)N[C@@H](CCCNC(=N)N)C(=O)N[C@@H](Cc1ccc(O)cc1)C(N)=O)[C@@H](C)O` [Compound 36, Y-Aib-E-G-T-F-T-S-D-Y-S-I-Aib-L-E-K-Q-E-Q-Aib-A-F-V-R-H-L-I-N-K(1,3)-Aib-T-R-Q-R-Y-NH2.C18DA-gGlu-gGlu-gGlu-gGlu-gGlu-gGlu-eLys(1,2)], the solubility at 2 h [1] is reported as 5000 µg/mL.

Molecule `CC[C@H](C)[C@H](NC(=O)[C@H](CC(C)C)NC(=O)[C@H](Cc1c[nH]cn1)NC(=O)[C@H](CCCNC(=N)N)NC(=O)[C@@H](NC(=O)[C@H](Cc1ccccc1)NC(=O)[C@H](C)NC(=O)C(C)(C)NC(=O)[C@H](CCC(N)=O)NC(=O)[C@H](C)NC(=O)[C@H](CCC(N)=O)NC(=O)[C@H](CCC(=O)O)NC(=O)[C@H](CC(=O)O)NC(=O)[C@H](CC(C)C)NC(=O)C(C)(C)NC(=O)[C@@H](NC(=O)[C@H](CO)NC(=O)[C@H](Cc1ccc(O)cc1)NC(=O)[C@H](CC(=O)O)NC(=O)[C@H](CO)NC(=O)[C@@H](NC(=O)[C@H](Cc1ccccc1)NC(=O)[C@@H](NC(=O)CNC(=O)[C@H](CCC(=O)O)NC(=O)C(C)(C)NC(=O)[C@@H](N)Cc1ccc(O)cc1)[C@@H](C)O)[C@@H](C)O)[C@@H](C)CC)C(C)C)C(=O)N[C@@H](CC(N)=O)C(=O)N[C@@H](CCCCNC(=O)[C@@H](N)CCCCNC(=O)CC[C@H](NC(=O)[C@H](CCC(=O)O)NC(=O)CC[C@H](NC(=O)CC[C@H](NC(=O)CC[C@H](NC(=O)CC[C@H](NC(=O)CCCCCCCCCCCCCCCCC(=O)O)C(=O)O)C(=O)O)C(=O)O)C(=O)O)C(=O)O)C(=O)NC(C)(C)C(=O)N[C@H](C(=O)N[C@@H](CCCNC(=N)N)C(=O)N[C@@H](CCC(N)=O)C(=O)N[C@@H](CCCNC(=N)N)C(=O)N[C@@H](Cc1ccc(O)cc1)C(N)=O)[C@@H](C)O` [Compound 40, Y-Aib-E-G-T-F-T-S-D-Y-S-I-Aib-L-D-E-Q-A-Q-Aib-A-F-V-R-H-L-I-N-K(1,3)-Aib-T-R-Q-R-Y-NH2.C18DA-gGlu-gGlu-gGlu-gGlu-gGlu-gGlu-eLys(1,2)] has a solubility [1] of 9500 µg/mL.

Molecule `CC[C@H](C)[C@H](NC(=O)[C@H](CO)NC(=O)[C@H](Cc1ccc(O)cc1)NC(=O)[C@H](CC(=O)O)NC(=O)[C@H](CO)NC(=O)[C@@H](NC(=O)[C@H](Cc1ccccc1)NC(=O)[C@@H](NC(=O)CNC(=O)[C@H](CCC(=O)O)NC(=O)C(C)(C)NC(=O)[C@@H](N)Cc1ccc(O)cc1)[C@@H](C)O)[C@@H](C)O)C(=O)NC(C)(C)C(=O)N[C@@H](CC(C)C)C(=O)N[C@@H](CCC(=O)O)C(=O)N[C@@H](CCCCN)C(=O)N[C@@H](CCC(N)=O)C(=O)N[C@@H](C)C(=O)N[C@@H](CCC(N)=O)C(=O)NC(C)(C)C(=O)N[C@@H](C)C(=O)N[C@@H](Cc1ccccc1)C(=O)N[C@H](C(=O)N[C@@H](CCCNC(=N)N)C(=O)N[C@@H](Cc1c[nH]cn1)C(=O)N[C@@H](CC(C)C)C(=O)N[C@@H](CC(C)C)C(=O)N[C@@H](CC(N)=O)C(=O)N[C@@H](CCCCNC(=O)[C@@H](N)CCCCNC(=O)CC[C@H](NC(=O)CC[C@H](NC(=O)CC[C@H](NC(=O)CC[C@H](NC(=O)CC[C@H](NC(=O)CC[C@H](NC(=O)CCCCCCCCCCCCCCCCCCC(=O)O)C(=O)O)C(=O)O)C(=O)O)C(=O)O)C(=O)O)C(=O)O)C(=O)NC(C)(C)C(=O)N[C@H](C(=O)N[C@@H](CCCNC(=N)N)C(=O)N[C@@H](CCC(N)=O)C(=O)N[C@@H](CCCNC(=N)N)C(=O)N[C@@H](Cc1ccc(O)cc1)C(N)=O)[C@@H](C)O)C(C)C` [Compound 80, Y-Aib-E-G-T-F-T-S-D-Y-S-I-Aib-L-E-K-Q-A-Q-Aib-A-F-V-R-H-L-L-N-K(1,3)-Aib-T-R-Q-R-Y-NH2.C20DA-gGlu-gGlu-gGlu-gGlu-gGlu-gGlu-eLys(1,2)] has an EC50 (hGIPR) of 1.7 nM.
